Measurements as given in patent US4564639A, “N-(2,6-Difluorobenzoyl-N-'-(2-fluoro-4-halophenyl)urea” (priority 1982, dated 1986).
Where two headings read alike, the source gives them in different places.

What was measured:
Spodoptera litura [1] = assay: Insecticidal effect against Spodoptera litura, leaf spraying (Table 1, I); type: in vivo; settings: read-out: mortality (I, spraying concn.)
Procedure: (§1) Insecticidal effect against Spodoptera litura
(a) The test compounds which comprise:
The above test compounds and control compounds were each processed into wettable powders in accordance with the same formula as in Example 9, followed by dilution with water to prepare emulsions containing 0.4 and 2 ppm, respectively. A spreader, Dyne® (produced by Takeda Chemical Industries, Japan), was added to the emulsions in the proportion of 0.03 volume % against the total volume, respectively, and 20 ml of each of the emulsions so obtained was sprayed by use of a spray gun (spraying pressure of 1 kg/cm^2) on seedlings (14 days after germination) of soybean grown in pots in a spray chamber. 2 hours after spraying, two true leaves were cut away and contained each in their respective ice-cream cup (diameter of 6 cm and depth of 4 cm), into which 10 third-instar larvae of Spodoptera litura was released. After the releasing of larvae, the cups were placed in a room (25° C.), and the number of larvae, […] was checked.
(§2) The mortalities in Test Examples 1 through 3 were calculated by the formula as mentioned below: [formula]

Spodoptera litura [2] = assay: Insecticidal effect against Spodoptera litura, direct spraying on larvae (Table 1, II); type: in vivo; settings: read-out: mortality (II, spraying concn.)
Procedure: as §1
(b) By the same procedure as in Example 7, the test compounds comprising the compounds of the present invention, i.e. Compound Nos. 1, 2, 3 and 4, and control compounds, i.e. Compounds A through G, were each processed into emulsifiable concentrates, which were then diluted with water to produce the aqueous solutions (containing 0.03 % v/v of added spreader, Dyne® (produced by Takeda Chemical Industries, Japan)) containing 10 and 50 ppm of the test compounds, respectively. 20 ml of each of the aqueous solutions was sprayed on 10 third-instar larvae of Spodoptera litura placed in a cage of wire netting. 30 minutes after the spraying, the larvae were taken out of the cage of wire netting and placed in an ice cream cup (diameter of 6 cm and depth of 4 cm) containing soybean leaves, and a number of dead larvae was checked in accordance with the same method as the examination method as stated under (a) except that the larvae were allowed to stand for 48 hours in place of 96 hours.
as §2

Chilo suppressalis = assay: Insecticidal effect against Chilo suppressalis, dipped rice seedlings; type: in vivo; settings: 96 h, read-out: Mortality, % (spraying concn.)
Procedure: as §2
Insecticidal effect against Chilo suppressalis
By the same procedure as in Example 9, the test compounds comprising the compounds of the present invention, i.e. Compound Nos. 1, 2, 3 and 4, and control compounds, i.e. Compounds A through G, were processed into wettable powder, respectively, and the aqueous solutions of 0.4 and 2 ppm in concentration were prepared therefrom by the same method as stated under (a) of Test Example 1, whereby 10 rice seedlings (the height of a plant of 2 cm) were dipped in each of the insecticide solutions for 30 minutes. The seedlings thus treated were placed in the respective glass containers (diameter of 2 cm and depth of 5 cm), into which 10 third-instar larvae of Chilo suppressalis were released. The containers were covered with aluminum foil and allowed to stand in a room (25° C.), and a number of dead larvae 4 days after the larvae were released was checked.

Plutella xylostella = assay: Insecticidal effect against Plutella xylostella, sprayed radish seedlings; type: in vivo
Procedure: as §2
Insecticidal effect against Plutella xylostella
By the same procedure as in Example 9, the test compounds comprising the compounds of the present invention, i.e., Compound Nos. 1, 2, 3 and 4, and control compounds, i.e. Compounds A through G, were processed into wettable powder, and the aqueous solutions of 50 ppm in concentration were prepared therefrom by the same method as stated under (a) of Test Example 1. 20 ml of each of the aqueous solutions was sprayed on seedlings of radish (25 days after germination) grown in pots in accordance with the same method as described under (a) of Test Example 1. 2 hours after the spraying, two true leaves were cut away and contained in their respective ice cream cups (diameter of 6 cm and depth of 4 cm), into which 10 second-instar larvae of Plutella xylostella were released. After the larvae were released, the above-mentioned cups were placed in a room (25° C.), and a number of dead larvae after 48 hours was checked.

Spodoptera litura [3] = assay: Insecticidal effect against Spodoptera litura, soil treatment with granules (Table 1, III); type: in vivo; settings: 96 h, 250 mg of 2 weight % granules in soil of potted soybean, leaves cut 10 days after treatment, third-instar larvae, read-out: mortality (III, treatment amount)
Procedure: as §1
(c) Using the compounds of the present invention, i.e. Compound Nos. 1, 2, 3 and 4, and control compounds, i.e. Compounds A through G, as the test compounds, granules containing 2 weight % of the test compounds were prepared by the same procedure as in Example 13, and 250 and 500 mg of each of the granules were admixed, for the purpose of treatment, into the soil around roots of soybean plants grown in pots (diameter of 9 cm), respectively. The pots so treated were placed in a glass room (28° C.), and 10 days after the treatment, two true leaves were cut away and contained each in ice cream cups (diameter of 6 cm and depth of 4 cm). 10 third-instar larvae of Spodoptera litura were released into each of the ice cream cups, and a number of dead larvae was checked in accordance with the same method as the examination method as stated under (a).
as §2

Oral toxicity in mice = settings: mouse, in vivo
insect = assay: Insecticidal and ovicidal effect (general statement); type: in vivo; settings: in words
plant body = assay: Penetration into the plant body (general statement); settings: in words
Toxicity to fishes = assay: Toxicity to fishes; set-up: species or system Orizias latipes; settings: in vivo; 72 hours later, orange-red killifish; read-out: TLm (the concentration at which 50% of the test fish dies)
[4] = 0.4 ppm, wettable powder emulsion sprayed on soybean seedlings, third-instar larvae, 96 hours
[5] = 2 ppm, wettable powder emulsion sprayed on soybean seedlings, third-instar larvae, 96 hours
[6] = emulsifiable concentrate solution sprayed on third-instar larvae, 48 hours
[7] = 0.4 ppm, rice seedlings dipped 30 minutes, third-instar larvae, 4 days
[8] = 2 ppm, rice seedlings dipped 30 minutes, third-instar larvae, 4 days
[9] = 50 ppm sprayed on radish seedlings, second-instar larvae, 48 hours, read-out: Mortality, %

SMILES	mortality at 0.4 ppm (Spodoptera litura [1]; [4]) [%]	mortality at 2 ppm (Spodoptera litura [1]; [5]) [%]	mortality at 10 ppm (Spodoptera litura [2]; 10 ppm, emulsifiable concentrate solution sprayed on third-instar larvae, 48 hours) [%]	mortality at 50 ppm (Spodoptera litura [2]; [6]) [%]	mortality at 0.4 ppm (Chilo suppressalis; [7]) [%]	mortality at 2 ppm (Chilo suppressalis; [8]) [%]	mortality at 50 ppm (Plutella xylostella; 48 h) [%]	mortality at 10 ppm (Spodoptera litura [2]; 48 h) [%]	mortality at 250 mg (Spodoptera litura [3]) [%]	mortality at 0.4 ppm (Chilo suppressalis) [%]	mortality at 2 ppm (Chilo suppressalis) [%]	mortality at 50 ppm (Plutella xylostella; [9]) [%]	LD50 (Oral toxicity in mice) [mg/kg]	insecticidal and ovicidal effect (insect)	mortality at 0.4 ppm (Spodoptera litura [1]; in Glycine max, 96 h) [%]	action to penetrate into the plant body (plant body)	LC50 at 72 h (Toxicity to fishes) [µg/mL]	mortality at 2 ppm (Spodoptera litura [1]; in Glycine max, 96 h) [%]
O=C(NC(=O)c1c(F)cccc1F)Nc1ccc(Cl)cc1 [Compound A, N-2,6-difluorobenzoyl-N'-4-chlorophenylurea]	20	30	0	10	5	40	20											
O=C(NC(=O)c1c(F)cccc1F)Nc1ccc(Br)cc1F [Compound No. 2, N-2,6-difluorobenzoyl-N'-2-fluoro-4-bromophenylurea]								60	80	70	100	100	≥ 3000	excellent insecticidal and ovicidal effect				
O=C(NC(=O)c1c(F)cccc1F)Nc1ccc(F)cc1F [Compound No. 3, N-2,6-difluorobenzoyl-N'-2,4-difluorophenyl urea]								35	100	40	80	95	≥ 3000		80	excellent action to penetrate into the plant body		
O=C(NC(=O)c1c(Cl)cccc1Cl)Nc1ccc(F)cc1F [Compound F, N-2,6-dichlorobenzoyl-N'-2,4-difluorophenylurea]					0	0			0			20						
O=C(NC(=O)c1c(F)cccc1F)Nc1ccc(Cl)c(Cl)c1 [Compound E, N-2,6-difluorobenzoyl-N'-3,4-dichlorophenylurea]	20	40			0	0			0			40						
O=C(NC(=O)c1c(Cl)cccc1Cl)Nc1ccc(Cl)cc1Cl [Compound B, N-2,6-dichlorobenzoyl-N'-2,4-dichlorophenylurea]					0	0			0			0						
O=C(NC(=O)c1c(F)cccc1F)Nc1ccc(Cl)cc1F [Compound No. 1, N-2,6-Difluorobenzoyl-N'-2-fluoro-4-chlorophenylurea]								60		80	100	100	≥ 3000	excellent insecticidal and ovicidal effect			≥ 10	
O=C(NC(=O)c1c(Cl)cccc1Cl)Nc1ccc(Cl)c(F)c1 [Compound C, N-2,6-dichlorobenzoyl-N'-3-fluoro-4-chlorophenylurea]	20	30			0	0			0			10						
O=C(NC(=O)c1c(F)cccc1F)Nc1ccc(Cl)c(F)c1 [Compound D, N-2,6-difluorobenzoyl-N'-3-fluoro-4-chlorophenylurea]	25	45		30	10	45			0			45						
O=C(NC(=O)c1c(F)cccc1F)Nc1ccc(I)c(F)c1 [Compound G, N-2,6-difluorobenzoyl-N'-3-fluoro-4-iodophenylurea]	5	35		5	10	55			0			50						
O=C(NC(=O)c1c(F)cccc1F)Nc1ccc(I)cc1F [Compound No. 4, N-2,6-difluorobenzoyl-N'-2-fluoro-4-iodophenylurea]								65	55	75	100	100	≥ 3000		100			100
